Tests used:
[1] = target: Methionine--tRNA ligase (Staphylococcus aureus); test: Compound tested for inhibition of Staphylococcus aureus MRS (methionyl tRNA synthetase) in aminoacylation assay
[2] = target: Methionine--tRNA ligase (Staphylococcus aureus); test: Compound tested for inhibition of Staphylococcus aureus MRS(methionyl tRNA synthetase) in aminoacylation assay

CCOc1c(Br)cc([S+](C)[O-])cc1CNCCCNc1cc(O)c2ccccc2n1 (stereo unspecified) [2-[3-(3-Bromo-2-ethoxy-5-methanesulfinyl-benzylamino)-propylamino]-1H-quinolin-4-one]
IC50 [1]: 23 nM

Oc1cc(NCCCNCc2cc(Cl)ccc2Cl)nc2ccccc12 [2-[3-(2,5-Dichloro-benzylamino)-propylamino]-1H-quinolin-4-one]
IC50 [2]: 9 nM

CCOc1c(I)cc(CO)cc1CNCCCNc1cc(O)c2ccccc2n1 [2-[3-(2-Ethoxy-5-hydroxymethyl-3-iodo-benzylamino)-propylamino]-1H-quinolin-4-one]
IC50 [1]: 14 nM

Oc1cc(NCCCNC2CCNc3c(Cl)cc(Cl)cc32)nc2ccccc12 (stereo unspecified) [2-[3-(6,8-Dichloro-1,2,3,4-tetrahydro-quinolin-4-ylamino)-propylamino]-1H-quinolin-4-one]
IC50 [1]: 23 nM

Cc1cc(Br)cc2c1NCCC2NCCCNc1cc(O)c2ccccc2n1 (stereo unspecified) [2-[3-(6-Bromo-8-methyl-1,2,3,4-tetrahydro-quinolin-4-ylamino)-propylamino]-1H-quinolin-4-one]
IC50 [1]: 9.4 nM

Oc1cc(NCCCNCc2ccc(Cl)c(Cl)c2)nc2ccccc12 [2-[3-(3,4-Dichloro-benzylamino)-propylamino]-1H-quinolin-4-one]
IC50 [1]: 16 nM

C=CCOc1c(Cl)cc(Cl)cc1CNCCCNc1cc(O)c2ccccc2n1 [2-[3-(2-Allyloxy-3,5-dichloro-benzylamino)-propylamino]-1H-quinolin-4-one]
IC50 [2]: 7.2 nM

C=CCc1cc(I)cc(CNCCCNc2cc(O)c3ccccc3n2)c1OCC
IC50 [1]: < 3 nM

CCOc1c(C#N)cc(Br)cc1CNCCCNc1cc(O)c2ccccc2n1 [5-Bromo-2-ethoxy-3-{[3-(4-oxo-1,4-dihydro-quinolin-2-ylamino)-propylamino]-methyl}-benzonitrile]
IC50 [1]: 4 nM

O=c1cc(NCCCNC2CCOc3c(Cl)cc(Cl)cc32)[nH]c2ccccc12 (stereo unspecified)
IC50 [1]: < 3 nM

CCOc1c(I)cc(C)cc1CNCCCNc1cc(O)c2ccccc2n1 [2-[3-(2-Ethoxy-3-iodo-5-methyl-benzylamino)-propylamino]-1H-quinolin-4-one]
IC50 [1]: 7.2 nM

Oc1cc(NCCCNC2CCNc3c(Cl)cc(Br)cc32)nc2ccccc12 (stereo unspecified)
IC50 [1]: < 3 nM

Oc1cc(NCCCNCc2cccc(Cl)c2Cl)nc2ccccc12 [2-[3-(2,3-Dichloro-benzylamino)-propylamino]-1H-quinolin-4-one]
IC50 [2]: 15 nM

Oc1cc(NCCCNC2CCOc3c(Cl)cc(I)cc32)nc2ccccc12 (stereo unspecified) [2-[3-(8-Chloro-6-iodo-chroman-4-ylamino)-propylamino]-1H-quinolin-4-one]
IC50 [1]: 12 nM

Oc1cc(NCCCNC2CCOc3c(Br)cc(Br)cc32)nc2ccccc12 (stereo unspecified) [2-(3-(6,8-dibromo-3,4-dihydro-2H-chromen-4-ylamino)propylamino)quinolin-4(1H)-one]
IC50 [1]: 7.8 nM

CCOc1c(C)cc(C#N)cc1CNCCCNc1cc(O)c2ccccc2n1 [4-Ethoxy-3-methyl-5-{[3-(4-oxo-1,4-dihydro-quinolin-2-ylamino)-propylamino]-methyl}-benzonitrile]
IC50 [1]: 3.9 nM

CCOc1c(C)cc(C(F)(F)F)cc1CNCCCNc1cc(O)c2ccccc2n1 [2-[3-(2-Ethoxy-3-methyl-5-trifluoromethyl-benzylamino)-propylamino]-1H-quinolin-4-one]
IC50 [1]: 6.8 nM

CCOc1c(CNCCCNc2cc(O)c3ccccc3n2)cc(I)cc1COC [2-[3-(2-Ethoxy-5-iodo-3-methoxymethyl-benzylamino)-propylamino]-1H-quinolin-4-one]
IC50 [1]: 9.4 nM

CC(C)Oc1c(Cl)cc(Cl)cc1CNCCCNc1cc(O)c2ccccc2n1 [2-[3-(3,5-Dichloro-2-isopropoxy-benzylamino)-propylamino]-1H-quinolin-4-one]
IC50 [2]: 29 nM

CCOc1cc(Br)c(OCC)c(CNCCCNc2cc(O)c3ccccc3n2)c1 [2-[3-(3-Bromo-2,5-diethoxy-benzylamino)-propylamino]-1H-quinolin-4-one]
IC50 [2]: 61 nM

O=C(NCCCNc1cc(O)c2ccccc2n1)c1ccc(Cl)c(Cl)c1 [3,4-Dichloro-N-[3-(4-oxo-1,4-dihydro-quinolin-2-ylamino)-propyl]-benzamide]
IC50 [2]: 140 nM

Oc1cc(NCCCNC2COc3c(Cl)cc(Cl)cc32)nc2ccccc12 (stereo unspecified) [2-[3-(5,7-Dichloro-2,3-dihydro-benzofuran-3-ylamino)-propylamino]-1H-quinolin-4-one]
IC50 [1]: 6 nM

Nc1c(Br)cc(Br)cc1CNCCCNc1cc(O)c2ccccc2n1 [2-[3-(2-Amino-3,5-dibromo-benzylamino)-propylamino]-1H-quinolin-4-one]
IC50 [2]: 9.1 nM

CCOC(=O)c1cc(I)cc(CNCCCNc2cc(O)c3ccccc3n2)c1OCC [2-Ethoxy-5-iodo-3-{[3-(4-oxo-1,4-dihydro-quinolin-2-ylamino)-propylamino]-methyl}-benzoic acid ethyl ester]
IC50 [1]: 21 nM

CCOc1c(Br)cc(C)cc1CNCCCNc1cc(O)c2ccccc2n1 [2-[3-(3-Bromo-2-ethoxy-5-methyl-benzylamino)-propylamino]-1H-quinolin-4-one]
IC50 [2]: 4.9 nM

CCc1cc(I)c2c(c1)C(NCCCNc1cc(O)c3ccccc3n1)CCN2 (stereo unspecified) [2-[3-(6-Ethyl-8-iodo-1,2,3,4-tetrahydro-quinolin-4-ylamino)-propylamino]-1H-quinolin-4-one]
IC50 [1]: 12 nM

CCOc1c(Br)cc(OC)cc1CNCCCNc1cc(O)c2ccccc2n1 [2-[3-(3-Bromo-2-ethoxy-5-methoxy-benzylamino)-propylamino]-1H-quinolin-4-one]
IC50 [2]: 3.1 nM

CCOc1c(Cl)cc(OC)cc1CNCCCNc1cc(O)c2ccccc2n1 [2-[3-(3-Chloro-2-ethoxy-5-methoxy-benzylamino)-propylamino]-1H-quinolin-4-one]
IC50 [2]: 4.3 nM

CCOc1c(CO)cc(I)cc1CNCCCNc1cc(O)c2ccccc2n1 [2-[3-(2-Ethoxy-3-hydroxymethyl-5-iodo-benzylamino)-propylamino]-1H-quinolin-4-one]
IC50 [1]: 4.1 nM

Oc1cc(NCCCSCc2ccc(Cl)c(Cl)c2)nc2ccccc12 [2-[3-(3,4-Dichloro-benzylsulfanyl)-propylamino]-1H-quinolin-4-one]
IC50 [2]: 170 nM

Oc1cc(NCCCNC2CCc3c(Cl)cc(Cl)cc32)nc2ccccc12 (stereo unspecified) [2-[3-(4,6-Dichloro-indan-1-ylamino)-propylamino]-1H-quinolin-4-one]
IC50 [1]: 5.1 nM

CCNc1c(Br)cc(Br)cc1CNCCCNc1cc(O)c2ccccc2n1 [2-[3-(3,5-Dibromo-2-ethylamino-benzylamino)-propylamino]-1H-quinolin-4-one]
IC50 [2]: 18 nM

CCOc1c(Br)cc(I)cc1CNCCCNc1cc(O)c2ccccc2n1 [2-[3-(3-Bromo-2-ethoxy-5-iodo-benzylamino)-propylamino]-1H-quinolin-4-one]
IC50 [2]: 8.8 nM

Oc1cc(NCCCNCc2ccccc2)nc2ccccc12 [2-(3-Benzylamino-propylamino)-1H-quinolin-4-one]
IC50 [2]: 300 nM

CCOc1c(CNCCCNc2cc(O)c3ccccc3n2)cc(I)cc1C(C)(C)C [2-[3-(3-tert-Butyl-2-ethoxy-5-iodo-benzylamino)-propylamino]-1H-quinolin-4-one]
IC50 [1]: 120 nM

CCOc1c(CNCCCNc2cc(O)c3ccccc3n2)cc(Br)cc1OC [TCMDC-139833]
IC50 [1]: 13 nM

CCOc1c(C)cc(I)cc1CNCCCNc1cc(O)c2ccccc2n1 [2-[3-(2-Ethoxy-5-iodo-3-methyl-benzylamino)-propylamino]-1H-quinolin-4-one]
IC50 [1]: 3.2 nM

Oc1cc(NCCCNC2CCNc3c(Br)cc(Br)cc32)nc2ccccc12 (stereo unspecified) [2-[3-(6,8-Dibromo-1,2,3,4-tetrahydro-quinolin-4-ylamino)-propylamino]-1H-quinolin-4-one]
IC50 [1]: 8 nM

Oc1cc(NCCCOCc2ccc(Cl)c(Cl)c2)nc2ccccc12 [2-[3-(3,4-Dichloro-benzyloxy)-propylamino]-1H-quinolin-4-one]
IC50 [2]: 50 nM

CCOc1c(CNCCCNc2cc(O)c3ccccc3n2)cc(I)cc1OC [TCMDC-139847]
IC50 [1]: 12 nM

Oc1cc(NCCCNC2CCCc3c(Cl)cc(Cl)cc32)nc2ccccc12 (stereo unspecified) [2-[3-(5,7-Dichloro-1,2,3,4-tetrahydro-naphthalen-1-ylamino)-propylamino]-1H-quinolin-4-one]
IC50 [1]: 3.8 nM

CCOc1c(I)cc(COC)cc1CNCCCNc1cc(O)c2ccccc2n1 [2-[3-(2-Ethoxy-3-iodo-5-methoxymethyl-benzylamino)-propylamino]-1H-quinolin-4-one]
IC50 [1]: 17 nM

CCOc1c(Cl)cc(Cl)cc1CNCCCNc1cc(O)c2ccccc2n1 [2-[3-(3,5-Dichloro-2-ethoxy-benzylamino)-propylamino]-1H-quinolin-4-one]
IC50 [2]: 14 nM

CCOC(=O)c1cc(I)c(OCC)c(CNCCCNc2cc(O)c3ccccc3n2)c1 [4-Ethoxy-3-iodo-5-{[3-(4-oxo-1,4-dihydro-quinolin-2-ylamino)-propylamino]-methyl}-benzoic acid ethyl ester]
IC50 [1]: 170 nM

CCc1cc(Br)cc2c1NCCC2NCCCNc1cc(O)c2ccccc2n1 (stereo unspecified) [2-[3-(6-Bromo-8-ethyl-1,2,3,4-tetrahydro-quinolin-4-ylamino)-propylamino]-1H-quinolin-4-one]
IC50 [1]: 4.3 nM

CCOc1c(C)cc(SC)cc1CNCCCNc1cc(O)c2ccccc2n1 [2-[3-(2-Ethoxy-3-methyl-5-methylsulfanyl-benzylamino)-propylamino]-1H-quinolin-4-one]
IC50 [1]: 5.1 nM

CNc1c(Br)cc(Br)cc1CNCCCNc1cc(O)c2ccccc2n1 [2-[3-(3,5-Dibromo-2-methylamino-benzylamino)-propylamino]-1H-quinolin-4-one]
IC50 [2]: 11 nM

CCOc1c(Br)cc(C#N)cc1CNCCCNc1cc(O)c2ccccc2n1 [3-Bromo-4-ethoxy-5-{[3-(4-oxo-1,4-dihydro-quinolin-2-ylamino)-propylamino]-methyl}-benzonitrile]
IC50 [2]: 4.6 nM

CCOc1c(I)cc(OC)cc1CNCCCNc1cc(O)c2ccccc2n1 [2-[3-(2-Ethoxy-3-iodo-5-methoxy-benzylamino)-propylamino]-1H-quinolin-4-one]
IC50 [1]: 3.3 nM

Oc1cc(NCCCNC2CCNc3c(Br)cc(Cl)cc32)nc2ccccc12 (stereo unspecified)
IC50 [1]: < 3 nM

Oc1cc(NCCCNC2CCOc3c(I)cc(Cl)cc32)nc2ccccc12 (stereo unspecified) [2-[3-(6-Chloro-8-iodo-chroman-4-ylamino)-propylamino]-1H-quinolin-4-one]
IC50 [1]: 9.4 nM
